Publication PMC11674141, “Antimicrobial activity and synergistic effect of phage-encoded antimicrobial peptides with colistin and outer membrane permeabilizing agents against Acinetobacter baumannii” (PeerJ, 2024)
In brackets after ≈: the same amount, converted by molar mass. Read-outs that look alike come from different tables or passages of the source. Where a SMILES comes first, the peptide text is derived from it. Bridges are numbered along the chain shown (N, C = ends). Where no end group is shown, it is not given here. [ ]: non-standard residue; d: D form. The star is where a group is joined. X1 = CC[C@H](C)CCCCC(=O)*; Dab = NCC[C@H](N)C(=O)O

Legend:
A. baumannii ATCC19606 [1] = details: for Minimum Inhibitory Concentration (MIC): A. baumannii 19606, sensitive; for MIC values of outer membrane permeabilizers and colistin: A. baumannii 19606
Bacillus subtilis = details: B. subtilis, sensitive
HepG2 cell line = assay: MTT cell viability assay; assay type: cell-based, human; design: key to Mean cell viability (Mean 2; control = 100): % viability relative to control (control = 100%); details: for IC50 (reduction of viable cells to 50%): 24 h, three independent experiments; for Mean cell viability (Mean 2; control = 100): mean of n = 3
Method: We aimed to determine the effects of peptides on cell viability and proliferation in the human hepatocellular carcinoma HepG2 cell line. The MTT assay was performed as described by [Muangpat et al. (2022)] with some modifications. The cells were cultured in Dulbecco’s Modified Eagle Medium (DMEM; Sigma-Aldrich, St. Louis, MO, USA), supplemented with 10% fetal bovine serum (FBS), 100 U/ml penicillin, and 100 μg/ml streptomycin at 37 °C in 5% CO^2 and 95% humidity. The cells were seeded into a 96-well plate at a density of 1 × 10^4 cells/well and allowed to adhere overnight. Then, the cells were exposed for 24 h to various concentrations of peptides. The control cells were cultured in complete DMEM medium containing 0.2% DMSO. After the 24-h incubation period, 20 μL of MTT solution (5 mg/mL in PBS) (Tokyo Chemical Industry Co., Ltd., Tokyo, Japan) was added to each well and incubated for another 2 h at 37 °C. The culture medium was then removed, and formazan crystals formed by viable cells were dissolved in 100 μL of DMSO before measuring the absorbance at 590 nm using a microplate spectrophotometer. The effect of the peptide on cell viability was calculated as a percentage of the control, which was arbitrarily assigned a value of 100% viability. The percentage of cell viability was calculated relative to the control group. The IC₅₀ of the peptides was defined as the concentration that caused a 50% reduction in cell viability compared with the control. The MTT assay was conducted in three independent experiments, each with triplicate wells per condition.

[2] = test system: twenty biofilm-forming A. baumannii strains; assay: Inhibition of biofilm formation (crystal violet); assay type: cell-based, Acinetobacter baumannii; design: Percent biofilm forming inhibition: concentration or dose not given beside the values; details: for average percent inhibition of biofilm formation: twenty A. baumannii strains, peptide at MIC (312.5, 156.25, 156.25 µg/mL), 24 h, crystal violet OD595
Method: We determined the ability of peptides to inhibit biofilm formation in twenty biofilm-forming strains using the method described by [Karyne et al. (2020)] with some modifications. Briefly, biofilm-forming strains of A. baumannii were adjusted to an equivalent of the 0.5 McFarland standard in 2× Luria Bertani (LB) broth supplemented with 20% glucose. Then, 50 µL of A. baumannii and 50 µL of peptides were added. […] The plates were incubated overnight at 37 °C. After 24 h of incubation, the culture medium was gently removed, and the wells were washed three times with phosphate-buffered saline. The adherent cells were fixed with absolute methanol for 10 min, stained with 0.4% crystal violet for 15 min, and washed three times with sterile distilled water, then air-dried. The plates were then filled with 250 µL of 33% acetic acid for 15 min. The absorbance at OD595 nm was determined. All experiments were performed in three independent assays, each repeated in triplicate, and the percentage of biofilm reduction was calculated based on treated wells vs. non-treated wells.

Escherichia coli = details: E. coli, sensitive
Staphylococcus aureus = details: S. aureus, sensitive
Pseudomonas aeruginosa = details: P. aeruginosa, sensitive
Klebsiella pneumoniae = details: K. pneumoniae, sensitive
A. baumannii ATCC19606 [3] = details: for MIC alone: ATCC19606, checkerboard, agent alone
[4] = A. baumannii 19,606, microdilution, MHB, 37 °C overnight, triplicate samples
[5] = microdilution, triplicate samples

## EYRSSWTGAYGASVLNKYIGMGRNS [PSTF02]
A. baumannii ATCC19606 [1]; ATCC19606
  MIC (ATCC19606): > 5000 µg/mL
  MIC values: >5,000 ug/ml

## CC[C@H](C)[C@H](NC(=O)[C@H](CCCNC(=N)N)NC(=O)[C@H](CC(N)=O)NC(=O)[C@@H](N)CCCCN)C(=O)N[C@H](C(=O)NCC(=O)N1CCC[C@H]1C(=O)N[C@H](C(=O)N[C@@H](Cc1ccc(O)cc1)C(=O)N[C@@H](C)C(=O)N[C@@H](CCCCN)C(=O)N[C@@H](CS)C(=O)N[C@@H](CC(N)=O)C(=O)N[C@@H](CCCNC(=N)N)C(=O)N[C@@H](CO)C(=O)N[C@@H](CCCNC(=N)N)C(=O)N[C@@H](CCC(N)=O)C(=O)N[C@@H](CCSC)C(=O)N[C@@H](C)C(=O)N[C@@H](CC(C)C)C(=O)N[C@@H](CCC(=O)O)C(=O)N[C@@H](CC(N)=O)C(=O)N[C@@H](CCSC)C(=O)N[C@@H](C)C(=O)N[C@@H](Cc1ccccc1)C(=O)O)C(C)C)[C@@H](C)CC [PTL02]
A. baumannii ATCC19606 [1]; [4]
  MIC values: 5,000 ug/ml
A. baumannii ATCC19606 [1]; A. baumannii ATCC19606
  MIC (ATCC19606): 5000 µg/mL (≈ 1720 µM)

## KIAIQIAIKGMLNGWFTGVGFRRKR [PE04-2]
A. baumannii ATCC19606 [1]
  Minimum Inhibitory Concentration (MIC): 156.25 µg/mL
A. baumannii ATCC19606 [1]; [4]
  MIC values: 156.25 µg/mL
A. baumannii ATCC19606 [1]; A. baumannii ATCC19606
  MIC (ATCC19606): 156.25 µg/mL
Bacillus subtilis
  Minimum Inhibitory Concentration (MIC): 39.06 µg/mL
HepG2 cell line
  IC50 (reduction of viable cells to 50%): 424.1 µg/mL
HepG2 cell line; peptide concentration 25 (unit not given)
  Mean cell viability (Mean 2; control = 100): 90.16
HepG2 cell line; peptide concentration 50 (unit not given)
  Mean cell viability (Mean 2; control = 100): 91.63
HepG2 cell line; peptide concentration 156.25 (unit not given)
  Mean cell viability (Mean 2; control = 100): 79.64
HepG2 cell line; peptide concentration 300 (unit not given)
  Mean cell viability (Mean 2; control = 100): 71.67
HepG2 cell line; peptide concentration 600 (unit not given)
  Mean cell viability (Mean 2; control = 100): 32.89
HepG2 cell line; peptide concentration 800 (unit not given)
  Mean cell viability (Mean 2; control = 100): 14.6
[2]; strain AB57, XDR-AB / CR-AB, 2013
  Percent biofilm forming inhibition: 92.3659%
[2]; strain AB263, MDR-AB, 2014
  Percent biofilm forming inhibition: 88.4382%
[2]
  average percent inhibition of biofilm formation: 91.92%
Escherichia coli
  Minimum Inhibitory Concentration (MIC): 156.25 µg/mL
Staphylococcus aureus
  Minimum Inhibitory Concentration (MIC): 39.06 µg/mL
Pseudomonas aeruginosa
  Minimum Inhibitory Concentration (MIC): 312.5 µg/mL
MDR-AB, XDR-AB; strain AB003, MDR-AB
  Minimum Inhibitory Concentration (MIC): 78.12 µg/mL
MDR-AB, XDR-AB; strain AB183, XDR-AB
  Minimum Inhibitory Concentration (MIC): 78.12 µg/mL
MDR-AB, XDR-AB; strain AB329, XDR-AB
  Minimum Inhibitory Concentration (MIC): 156.25 µg/mL
MDR-AB, XDR-AB; strain CR89, MDR-AB
  Minimum Inhibitory Concentration (MIC): 156.25 µg/mL
Klebsiella pneumoniae
  Minimum Inhibitory Concentration (MIC): 312.5 µg/mL
A. baumannii ATCC19606 [3]; ATCC19606
  FIC index, peptide plus colistin: 0.14
  FICI: 0.25

## ENMRNRKWNSTDTVMRRSRFQRYLR [PTTPAT04]
A. baumannii ATCC19606 [1]; [4]
  MIC values: 2,500 ug/ml
A. baumannii ATCC19606 [1]; A. baumannii ATCC19606
  MIC (ATCC19606): 2500 µg/mL

## CC[C@H](C)CCCCC(=O)N[C@@H](CCN)C(=O)N[C@H](C(=O)N[C@@H](CCN)C(=O)N[C@H]1CCNC(=O)[C@H]([C@@H](C)O)NC(=O)[C@H](CCN)NC(=O)[C@H](CCN)NC(=O)[C@H](CC(C)C)NC(=O)[C@@H](CC(C)C)NC(=O)[C@H](CCN)NC1=O)[C@@H](C)O [Colistin] (X1-[Dab]T[Dab][Dab][Dab][dL]L[Dab][Dab]T; lactam 4-C (inferred); N-terminus assumed)
A. baumannii ATCC19606 [1]; [5]
  MIC values of outer membrane permeabilizers and colistin: 2 µg/mL
MDR-AB, XDR-AB; strain AB57, XDR-AB / CR-AB
  Colistin Resistance MIC: 1 µg/mL
MDR-AB, XDR-AB; strain AB59, XDR-AB / CR-AB
  Colistin Resistance MIC: 0.5 µg/mL
MDR-AB, XDR-AB; strain AB329, XDR-AB / CR-AB
  Colistin Resistance MIC: 1 µg/mL
MDR-AB, XDR-AB; strain CR65-40, MDR-AB / CR-AB
  Colistin Resistance MIC: 8 µg/mL
MDR-AB, XDR-AB; strain CR65-43, XDR-AB / CR-AB
  Colistin Resistance MIC: 4 µg/mL
MDR-AB, XDR-AB; strain CR65-47, MDR-AB / CR-AB
  Colistin Resistance MIC: 2 µg/mL
MDR-AB, XDR-AB; strain CR65-51, XDR-AB / CR-AB
  Colistin Resistance MIC: 2 µg/mL
MDR-AB, XDR-AB; strain CR65-55, MDR-AB / CR-AB
  Colistin Resistance MIC: 2 µg/mL
MDR-AB, XDR-AB; strain CR65-71, MDR-AB / CR-AB
  Colistin Resistance MIC: 4 µg/mL
MDR-AB, XDR-AB; strain CR65-74, XDR-AB / CR-AB
  Colistin Resistance MIC: 2 µg/mL
A. baumannii ATCC19606 [3]
  MIC alone: 2 µg/mL

## LIAIQIAIKGMLNGWFTGVGFRRKR-NH2 [PE04-1-NH2]
A. baumannii ATCC19606 [3]
  MIC alone: 156.25 µg/mL

## LNSKDYAGAAAQFLVWNKGRVKGKL [PE02-1]
A. baumannii ATCC19606 [1]; ATCC19606
  MIC (ATCC19606): > 2500 µg/mL
  MIC values: >2,500 ug/ml

## LIAIQIAIKGMLNGWFTGVGFRRKR [PE04-1]
A. baumannii ATCC19606 [1]
  Minimum Inhibitory Concentration (MIC): 312.5 µg/mL
A. baumannii ATCC19606 [1]; [4]
  MIC values: 312.5 µg/mL
A. baumannii ATCC19606 [1]; A. baumannii ATCC19606
  MIC (ATCC19606): 312.5 µg/mL
Bacillus subtilis
  Minimum Inhibitory Concentration (MIC): 39.06 µg/mL
HepG2 cell line
  IC50 (reduction of viable cells to 50%): 1,440 ug/ml
[2]; strain AB23, MDR-AB / CR-AB, 2013
  Percent biofilm forming inhibition: 92.1075%
[2]; strain CR65-47, MDR-AB / CR-AB, 2022
  Percent biofilm forming inhibition: 61.4919%
[2]
  average percent inhibition of biofilm formation: 58.11%
Escherichia coli
  Minimum Inhibitory Concentration (MIC): 2500 µg/mL
Staphylococcus aureus
  Minimum Inhibitory Concentration (MIC): 39.06 µg/mL
Pseudomonas aeruginosa
  Minimum Inhibitory Concentration (MIC): 2500 µg/mL
MDR-AB, XDR-AB; strain AB003, MDR-AB
  Minimum Inhibitory Concentration (MIC): 312.5 µg/mL
MDR-AB, XDR-AB; strain AB183, XDR-AB
  Minimum Inhibitory Concentration (MIC): 156.25 µg/mL
MDR-AB, XDR-AB; strain AB329, XDR-AB
  Minimum Inhibitory Concentration (MIC): 625 µg/mL
MDR-AB, XDR-AB; strain CR89, MDR-AB
  Minimum Inhibitory Concentration (MIC): 312.5 µg/mL
Klebsiella pneumoniae
  Minimum Inhibitory Concentration (MIC): 2500 µg/mL
A. baumannii ATCC19606 [3]; ATCC19606
  FIC index, peptide plus colistin: 0.19

## WNKGRVKGKLEVIPGLTNRRKKEKA [PE02-2]
A. baumannii ATCC19606 [1]; ATCC19606
  MIC (ATCC19606): 1250 µg/mL
  MIC values: 1,250 ug/ml

## KRQTLADKKERKKFHDGLMLNDNIR [PIN02]
A. baumannii ATCC19606 [1]; ATCC19606
  MIC (ATCC19606): > 5000 µg/mL
  MIC values: >5,000 ug/ml

## O=C(O)CC(O)C(=O)O (racemic) [DL-Malic acid, reference compound]
A. baumannii ATCC19606 [1]; [5]
  MIC values of outer membrane permeabilizers and colistin: 2500 µg/mL
